Experimental data as given in patent publication US6716828B1, “Compounds, methods and pharmaceutical compositions for treating cellular damage, such as neural or cardiovascular tissue damage” (Guilford Pharmaceuticals, Inc., priority 1999, dated 2004).

What was measured:
[1] = target: T1, purified recombinant human PARP (Homo sapiens, UniProt P09874); assay: PARP enzyme assay (IC50), [3H]NAD incorporation; type: biochemical; conditions: approximate IC50 values
T1 construct: purchased Trevigan (Gaithersburg, Md.)
Protocol: A convenient method to determine IC50 of a PARP inhibitor compound is PARP assay using purified recombinant human PARP from Trevigan (Gaithersburg, Md.), as follows: The PARP enzyme assay is set up on ice in a volume of 100 microliters consisting of 100 mM Tris-HCl (pH 8.0). 1 mM MgCl2, 28 mM KCl, 28 mM NaCl, 0.1 mg/ml of DNase I activated herring sperm DNA (Sigma, Mo.), 3.0 micromolar [3H]nicotinamide adenine dinucleotide (470 mci/mmole), 7 micrograms/ml PARP enzyme, and various concentrations of the compounds to be tested. The reaction is initiated by incubating the mixture at 25° C. After 15 minutes of incubation, the reaction is terminated by adding 500 microliters of ice code 20% (w/v) trichloracetic acid. The precipitate formed is transferred onto a glass fiber filter (Packard Unifilter-GF/B) and washed three items with ethanol. After the filter is dried, the radioactivity is determined by scintillation counting.
Using the PARP assay described above, approximate IC50 values were obtained for the following compounds: […]

[2] = tested on: rabbits; conditions: cited from earlier work
[3] = tested on: human fibroblast cells lines (either W138 or BJ cells); assay: Extending or increasing proliferative capacity and lifespan of cells; type: cell-based
Protocol: At the time of subdivision, the media is aspirated, and the cells rinsed with phosphate buffer saline (PBS) and then trypsinzied. The cells are counted with a Coulter counter and plated at a density of 10^5 cells per cm^2 in 6-well tissue culture plates in DMEM/199 medium supplemented with 10% bovine calf serum and varying amounts (0.10 μM, and 1 mM; from a 100× stock solution in DMEM/M199 medium) of a PARP inhibitor. This process is repeated every 7 days until the cells appear to stop dividing. The untreated (control) cells reach senescence and stop dividing after about 40 days a culture. […] The cells treated with 1 mM 3-AB will still divide after 60 days in culture.

T1 sequence (P09874 whole entry): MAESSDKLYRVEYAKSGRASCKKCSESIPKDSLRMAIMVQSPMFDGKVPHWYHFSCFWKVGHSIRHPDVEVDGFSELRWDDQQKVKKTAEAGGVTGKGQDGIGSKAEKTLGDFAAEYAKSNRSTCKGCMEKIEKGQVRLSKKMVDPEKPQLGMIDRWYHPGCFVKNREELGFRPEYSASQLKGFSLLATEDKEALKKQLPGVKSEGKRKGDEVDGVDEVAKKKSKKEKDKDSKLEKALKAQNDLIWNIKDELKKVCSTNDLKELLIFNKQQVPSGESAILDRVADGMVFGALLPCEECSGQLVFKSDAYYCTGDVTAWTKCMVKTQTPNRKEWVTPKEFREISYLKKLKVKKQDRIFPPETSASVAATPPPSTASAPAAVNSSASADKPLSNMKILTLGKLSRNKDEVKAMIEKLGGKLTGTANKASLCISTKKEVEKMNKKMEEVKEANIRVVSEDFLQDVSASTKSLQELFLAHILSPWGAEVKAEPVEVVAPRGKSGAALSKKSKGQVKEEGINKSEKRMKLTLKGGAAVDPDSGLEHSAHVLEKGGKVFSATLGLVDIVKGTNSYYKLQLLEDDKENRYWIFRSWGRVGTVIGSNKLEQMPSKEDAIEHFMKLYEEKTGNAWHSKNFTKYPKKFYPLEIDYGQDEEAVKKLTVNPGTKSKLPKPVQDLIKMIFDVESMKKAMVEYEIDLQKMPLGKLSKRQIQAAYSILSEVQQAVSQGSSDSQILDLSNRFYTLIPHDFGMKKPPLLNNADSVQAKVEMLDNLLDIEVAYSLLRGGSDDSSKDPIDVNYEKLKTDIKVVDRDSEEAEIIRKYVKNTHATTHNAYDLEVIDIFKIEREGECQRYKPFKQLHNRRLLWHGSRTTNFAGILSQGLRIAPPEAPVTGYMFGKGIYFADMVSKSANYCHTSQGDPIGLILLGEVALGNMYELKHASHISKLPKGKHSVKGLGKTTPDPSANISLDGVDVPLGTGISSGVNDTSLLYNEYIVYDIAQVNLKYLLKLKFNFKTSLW

Row | IC50 [1] [nM] | Structure (SMILES) | other results
1 |  | COP(=O)(O)Cc1ccc2c(c1)-c1n[nH]c(=O)c3cccc(c13)O2 | melting point: 196 to 201 °C
2 | 69 | CC(=O)Nc1ccc2c(c1)-c1n[nH]c(=O)c3cccc-2c13 | 
3 | 36 | CC(=O)Nc1ccc2c(c1)-c1n[nH]c(=O)c3cccc(c13)O2 | 
4 | 52 | O=c1[nH]nc2c3c(cccc13)Oc1ccc(S(=O)(=O)O)cc1-2 | 
5 | 192 | O=c1[nH]nc2c3c(cccc13)Oc1ccc(S(=O)(=O)NCCN3CCCCC3)cc1-2 | 
6 | 81 | O=c1[nH]nc2c3c(cccc13)Oc1ccc(S(=O)(=O)NCCN3CCOCC3)cc1-2 | 
7 | 208 | CN1CCN(S(=O)(=O)c2ccc3c(c2)-c2n[nH]c(=O)c4cccc(c24)O3)CC1 | 
8 | 198 | CS(=O)(=O)Nc1ccc2c(c1)-c1n[nH]c(=O)c3cccc(c13)O2 | 
9 | 52 | O=C(O)c1cccc(S(=O)(=O)Nc2ccc3c(c2)-c2n[nH]c(=O)c4cccc-3c24)c1 | 
10 | 29 | O=C(O)CCC(=O)Nc1ccc2c(c1)-c1n[nH]c(=O)c3cccc-2c13 | 
11 | 390 | CCN(CC)CCNS(=O)(=O)c1ccc2c(c1)-c1n[nH]c(=O)c3cccc-2c13 | 
12 | 340 | O=c1[nH]nc2c3c(cccc13)-c1ccc(S(=O)(=O)NCCN3CCOCC3)cc1-2 | 
13 | 25 | O=c1[nH]nc2c3c(cccc13)Oc1ccc(NS(=O)(=O)O)cc1-2 | 
14 | 340 | O=C1NN=C2C3C=CC=CC3[S+]([O-])C3=CC=CC1C32 (stereo not drawn) | 
15 | 21 | O=C(O)CCC(=O)Nc1ccc2c(c1)-c1n[nH]c(=O)c3cccc(c13)O2 | 
16 | 45 | NCNCc1ccc2c(c1)-c1n[nH]c(=O)c3cccc(c13)O2 | 
17 | 35 | NNC(=O)c1ccc(OCc2ccc3c(c2)-c2n[nH]c(=O)c4cccc(c24)O3)cc1 | 
18 | 40 | NNC(=O)c1cc(OCc2ccc3c(c2)-c2n[nH]c(=O)c4cccc(c24)O3)cc(C(=O)NN)c1 | 
19 | 25 | N#CCc1ccc2c(c1)-c1n[nH]c(=O)c3cccc(c13)O2 | 
20 | 17 | CN(C)Cc1ccc2c(c1)-c1n[nH]c(=O)c3cccc(c13)O2 | 
21 | 120 | CCCCN(C)Cc1ccc2c(c1)-c1n[nH]c(=O)c3cccc(c13)O2 | 
22 | 72 | O=c1[nH]nc2c3c(cccc13)Oc1ccc(CN3CCCCC3)cc1-2 | 
23 | 28 | NCCSCc1ccc2c(c1)-c1n[nH]c(=O)c3cccc(c13)O2 | 
24 | 2030 | Cc1cc2c(c(S(=O)(=O)O)c1)Oc1cccc3c(=O)[nH]nc-2c13 | 
25 | 128 | CN(C)c1cccc(OCc2ccc3c(c2)-c2n[nH]c(=O)c4cccc(c24)O3)c1 | 
26 | 161 | O=C1NCC2c3cc(S(=O)(=O)O)ccc3Oc3cccc1c32 (stereo not drawn) | 

Row | IC50 [1] [nM] | Structure (SMILES) | other results
27 | 54 | O=c1[nH]nc2c3c(cccc13)Oc1ccc(COc3cccnc3)cc1-2 | 
28 | 44 | O=c1[nH]nc2c3c(cccc13)Oc1ccc(CN3CCN(Cc4ccccc4)CC3)cc1-2 | 
29 | 62 | O=c1[nH]nc2c3c(cccc13)Oc1ccc(CN3CCN(c4ccccc4)CC3)cc1-2 | 
30 | 361 | O=C1NCC2c3cc(S(=O)(=O)NCCN4CCCCC4)ccc3Oc3cccc1c32 (stereo not drawn) | 
31 | 17 | O=c1[nH]nc2c3c(cccc13)Oc1ccc(CSc3ccncc3)cc1-2 | 
32 | 40000 | O=c1[nH]nc2c3c(cccc13)Oc1c-2ccc2ccccc12 | 
33 | 89 | O=c1[nH]nc2c3c(cccc13)Oc1ccc(S(=O)(=O)NCCc3ccncc3)cc1-2 | 
34 | 25000 | Cc1cc2c(c(-n3nc4ccccc4n3)c1)Oc1cccc3c(=O)[nH]nc-2c13 | 
35 | 139 | O=c1[nH]nc2c3c(cccc13)Oc1cc3ccccc3cc1-2 | 
36 | 100 | O=c1[nH]nc2c3c(cccc13)Oc1ccc(-c3nc4ccccc4nc3-c3ccccc3)cc1-2 | 
37 | 77 | O=c1[nH]nc2c3c(cccc13)Oc1ccc(CN3CCN(c4ccccn4)CC3)cc1-2 | 
38 | 233 | CN1CCN(S(=O)(=O)c2ccc3c(c2)C2CNC(=O)c4cccc(c42)O3)CC1 (stereo not drawn) | 
39 | 144 | O=C1NCC2c3cc(S(=O)(=O)NN4CCOCC4)ccc3Oc3cccc1c32 (stereo not drawn) | 
40 | 58 | O=C(O)[C@@H]1CCCN1S(=O)(=O)c1ccc2c(c1)-c1n[nH]c(=O)c3cccc(c13)O2 | 
41 | 595 | COC(=O)C1CCCCN1S(=O)(=O)c1ccc2c(c1)C1CNC(=O)c3cccc(c31)O2 (stereo not drawn) | 
42 | 158 | O=c1[nH]nc2c3c(cccc13)Oc1ccc(S(=O)(=O)NCCN(CCO)CCO)cc1-2 | 
43 | 59 | CC(=O)OC(C(=O)O)C(OC(C)=O)C(=O)Nc1ccc2c(c1)-c1n[nH]c(=O)c3cccc-2c13 (stereo not drawn) | 
44 | 185 | O=c1[nH]nc2c3c(cccc13)Oc1ccc(S(=O)(=O)NCCCN3CCOCC3)cc1-2 | 
45 | 37 | O=c1[nH]nc2c3c(cccc13)Oc1ccc(S(=O)(=O)NC3CN4CCC3CC4)cc1-2 (stereo not drawn) | 
46 | 85 | CN(C)CCN(C)Cc1ccc2c(c1)-c1n[nH]c(=O)c3cccc(c13)O2 | 
47 | 18 | CC(=O)OC(C(=O)O)C(OC(C)=O)C(=O)Nc1ccc2c(c1)-c1n[nH]c(=O)c3cccc(c13)O2 (stereo not drawn) | 
48 | 65 | O=C(O)C(O)C(O)C(=O)Nc1ccc2c(c1)-c1n[nH]c(=O)c3cccc-2c13 (stereo not drawn) | 
49 | 23 | O=C(O)C(O)C(O)C(=O)Nc1ccc2c(c1)-c1n[nH]c(=O)c3cccc(c13)O2 (stereo not drawn) | 
50 | 75 | O=c1[nH]nc2c3c(cccc13)Oc1ccc(CN3CCOCC3)cc1-2 | 
51 |  | Oc1cccc2c(O)nccc12 [1,5-dihydroxyisoquinoline] | reduction in infarct size ([2]; 1 mg/kg): 38-48%
52 |  | NC(=O)c1cccc(N)c1 [3-amino-benzamide] | effect on lifespan and proliferative capacity of the cells ([3]; 10 μM): little or no effect; effect on lifespan and proliferative capacity of the cells ([3]; 100 μM): lengthen the lifespan of the cells; effect on lifespan and proliferative capacity of the cells ([3]; 1 mM): dramatically increases the lifespan and proliferative capacity of the cells; time in culture at which cells still divide ([3]; 1 mM, untreated cells stop dividing after about 40 days): > 60 days; reduction in infarct size in the heart ([2]; single injection 10 mg/kg, one minute before occlusion or one minute before reperfusion): 32-42%

Row | Structure (SMILES) | IC50 [1] [nM] | other results
53 | CCOP(=O)(Nc1ccc2c(c1)-c1n[nH]c(=O)c3cccc(c13)O2)OCC | 199 | 
